According to patent publication US20220119840A1, “CLOSED-ENDED DNA (CEDNA) AND USE IN METHODS OF REDUCING GENE OR NUCLEIC ACID THERAPY RELATED IMMUNE RESPONSE” (Generation Bio Co., priority 2019, published 2022):
“Also recorded” adds a separate entry of the source. Read-outs that look alike come from different tables or passages of the source.

Assays:
IRF pathway = assay: THP-1 Dual reporter assay, interferon (IRF pathway) induction, Quanti-Luc; assay type: cell-based; settings: for effect on ceDNA-induced interferon induction: inhibitor pretreatment 2 h, 0.625-2.5 μM; for concentration giving maximal inhibition of interferon induction: doses 0.625, 1.25, 2.5 μM
[1] = tested on: IFN-α, IFN-γ, IL-6, IP-10, IL-18, IL-1β, MCP-1, and TNF-alpha; assay: ProcartaPlex multiplex cytokine immunoassay after TTX-9 ceDNA with inflammasome inhibitor pre-treatment; assay type: in vivo; settings: C57bL mice, inhibitor i.p. 12-16 h and 1 h before 0.5 mg/kg ceDNA (TTX9-LNP) IV
human TLR9 = biological target: T1, human TLR9 (Homo sapiens, UniProt Q9NR96); assay: HEK-BLUE.hTLR9 NF-κB/SEAP assay (Quanti-BLUE); assay type: cell-based; settings: A151 10 μM, 3 h pretreatment, 300 ng ceDNA
T1 construct: host or cells: HEK-293 (HEK-BLUE.hTLR9 cells)
T1 sequence (Q9NR96 26-1032): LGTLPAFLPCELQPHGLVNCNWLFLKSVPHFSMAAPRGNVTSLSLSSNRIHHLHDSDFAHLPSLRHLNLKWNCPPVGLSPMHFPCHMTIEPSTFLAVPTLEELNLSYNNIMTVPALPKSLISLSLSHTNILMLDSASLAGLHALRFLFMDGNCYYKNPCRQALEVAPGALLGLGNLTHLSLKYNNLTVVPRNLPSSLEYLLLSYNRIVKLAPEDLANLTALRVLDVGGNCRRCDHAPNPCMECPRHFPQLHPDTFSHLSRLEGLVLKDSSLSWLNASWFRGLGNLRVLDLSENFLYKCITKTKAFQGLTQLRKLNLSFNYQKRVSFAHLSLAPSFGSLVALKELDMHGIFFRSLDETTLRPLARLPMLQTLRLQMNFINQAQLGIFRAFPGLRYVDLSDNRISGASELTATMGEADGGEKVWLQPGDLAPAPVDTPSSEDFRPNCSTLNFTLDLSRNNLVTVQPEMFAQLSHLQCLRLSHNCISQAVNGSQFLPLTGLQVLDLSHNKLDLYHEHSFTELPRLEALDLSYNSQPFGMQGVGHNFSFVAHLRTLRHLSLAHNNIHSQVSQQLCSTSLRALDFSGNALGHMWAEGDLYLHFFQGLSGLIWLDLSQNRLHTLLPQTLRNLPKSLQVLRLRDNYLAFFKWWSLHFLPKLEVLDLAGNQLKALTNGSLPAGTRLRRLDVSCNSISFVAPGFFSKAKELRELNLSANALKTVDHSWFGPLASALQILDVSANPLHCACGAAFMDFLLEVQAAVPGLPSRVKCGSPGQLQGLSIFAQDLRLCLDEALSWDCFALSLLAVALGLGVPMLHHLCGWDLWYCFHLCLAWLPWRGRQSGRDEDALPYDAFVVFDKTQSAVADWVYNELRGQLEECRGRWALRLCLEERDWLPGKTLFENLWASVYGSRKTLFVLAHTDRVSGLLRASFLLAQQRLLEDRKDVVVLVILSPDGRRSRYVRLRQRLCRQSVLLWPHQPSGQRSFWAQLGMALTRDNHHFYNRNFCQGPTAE

Factor IX deficient mice = assay: Factor IX plasma ELISA, ceDNA encoding Factor IX and A151; assay type: in vivo

| Compound | effect on ceDNA-induced interferon induction (IRF pathway) | levels of IL-18 [1] | concentration giving maximal inhibition of interferon induction (IRF pathway) [µM] | other results |
| --- | --- | --- | --- | --- |
| O=C(NCCCNc1nc(Nc2cccc(NC(=O)N3CCCC3)c2)ncc1I)c1cccs1 [BX795, N-[3-[[5-Iodo-4-[[3-[(2-thienylcarbonyl)amino]propyl]amino]-2-pyrimidinyl]amino]phenyl]-1-pyrrolidinecarboxamide] | similarly reduce this interferon pathway activation; also recorded: abrogation of ceDNA-induced interferon induction |  |  |  |
| CC(C)(O)c1coc(S(=O)(=O)NC(=O)Nc2c3c(cc4c2CCC4)CCC3)c1 [MCC950] |  | significant reduction of IFN-γ; also recorded: significantly reduced |  | levels of IFNγ [1]: significant reduction of IFN-γ; also recorded: significantly reduced; levels of IP-10 [1]: reduction in levels |
| CO[C@H]1C[C@@H]2CC[C@@H](C)[C@@](O)(O2)C(=O)C(=O)N2CCCC[C@H]2C(=O)O[C@H]([C@H](C)C[C@@H]2CC[C@@H](O)[C@H](OC)C2)CC(=O)[C@H](C)/C=C(\C)[C@@H](O)[C@@H](OC)C(=O)[C@H](C)C[C@H](C)/C=C/C=C/C=C/1C [RAPA, rapamycin] |  |  |  | RAPA solubility in the dispersed nanocarrier phase (PLA and PLA-PEG as nanocarrier polymers): 8.4 % wt/wt; RAPA solubility in the dispersed nanocarrier phase (PLGA and PLA-PEG as nanocarrier polymers): 7.2 % wt/wt |
| CCO[C@@H]1OC(=O)C[C@@H]1NC(=O)[C@@H]1CCCN1C(=O)[C@@H](NC(=O)c1ccc(N)c(Cl)c1)C(C)(C)C [VX765, (S)-1-((S)-2-{[1-(4-amino-3-chloro-phenyl)-methanoyl]-amino}-3,3-dimethyl-butanoyl)-pyrrolidine-2-carboxylic acid ((2R,3S)-2-ethoxy-5-oxo-tetrahydro-furan-3-yl)-amide] |  | reduced |  |  |
| A151: oligonucleotide TTAGGGTTAGGGTTAGGGTTAGGG (SEQ ID NO:892) | similarly reduce this interferon pathway activation; also recorded: dose-dependency of interferon induction inhibition; also recorded: concentration-dependent |  | 2.5 | ceDNA-stimulated NF-κB induction in presence of inhibitor (human TLR9): reduced the ceDNA-stimulated NF-κB induction to the same degree as methylation of CpG; also recorded: minimal levels of NF-κB induction; cytokine secretion upon re-dose (Factor IX deficient mice; versus ceDNA vector encoding only Factor IX): less activation of cytokine secretion; expression of factor IX (Factor IX deficient mice; versus ceDNA vector expressing only Factor IX): increased and/or sustained expression of factor IX |
| AS1411: TLR9 inhibitory oligonucleotide GGTGGTGGTGGTTGTGGTGGTGGTGG, SEQ ID NO: 903 (chemistry not given here) | dose-dependency of interferon induction inhibition; also recorded: concentration-dependent |  | 2.5 |  |
